Reference: patent US20100248255A1, “NOVEL PEPTIDES” (KYOWA HAKKO KOGYO CO., LTD, priority 2005, published 2010)
Entries after “also recorded” stand apart in the source; their conditions may differ. No end group written: not given here.

Columns and labels:
[1] = test system: cardiac cells of the apoaequorin-expressing mice; test: Intracellular calcium ion increase (aequorin luminescence), heart of apoaequorin-expressing mice; type: cell-based, mouse; settings: for intracellular calcium concentration in cardiac cells (RLU per second): 1 μmol/L of peptide, added at 25 seconds; for luminescence in the heart: organ pieces, peptide final concentrations of 1 μmol/L and of 5 μmol/L
Procedure: (§1) A heart or blood vessel is collected from transgenic mice systemically expressing apoaequorin (WO02/010371) produced by introducing an apoaequorin gene expression vector into fertilized eggs. The obtained heart or blood vessel is cut finely into pieces, suspended in a medium containing coelenterazine, and then incubated to incorporate coelenterazine into the cells to form aequorin (a complex of apoaequorin and coelenterazine). Since aequorin luminesces upon binding to intracellular calcium ions, the relative luminescence level in cells before and after addition of a medium containing the peptide or a pharmaceutically acceptable salt thereof is measured in a luminometer every second over time and is used as an indicator of intracellular calcium ion concentration. Increase in the relative luminescence level due to addition of the peptide or pharmaceutically acceptable salt thereof confirms that the peptide or pharmaceutically acceptable salt thereof has the activity to increase intracellular calcium ion concentration.
(§2) Whether Peptides 1 to 5, 9 and 10 synthesized in Example 2 have the activity of increasing intracellular calcium ion concentration was investigated using the organs of transgenic mice introduced with the apoaequorin gene and systemically expressing apoaequorin (hereinafter referred to as apoaequorin-expressing mice). In apoaequorin-expressing mouse cells, light is emitted when apoaequorin binds to a calcium ion in the presence of the luminescent substrate coelenterazine and thus the intracellular calcium ion concentration can be monitored. Patent Document (WO02/010371) discloses the method for producing apoaequorin-expressing mice, method for evaluating biologically active substances that use biological samples derived from the mice, and experimental results of evaluating biologically active peptides using the mouse organs as shown below. […] Therefore, apoaequorin-expressing mice can be used in the evaluation of the physiological activities of novel peptides.
(§3) Apoaequorin-expressing mice were produced according to the method disclosed in Reference Example 4 of Patent Document (WO02/010371). The apoaequorin-expressing mice were sacrificed, individual organs including thymus, spleen, bone, blood vessel, heart, kidney, adrenal gland, pancreas, pituitary gland, and uterus, were removed; and each of the organs was cut into small cubes of approximately 1 to 2 mm^3. Next, in 5-mL tubes (Rohren-Tubes; manufactured by Sarstedt, No. 55.476), three portions of each of the prepared organs were added to 50 μL of a 10 μmol/L solution of coelenterazine (manufactured by Molecular Probes) dissolved in RPMI 1640 medium, and these were cultured at 37° C. for three hours. After culturing, RPMI 1640 medium was added, and then Peptides 1 to 5, 9 and 10 dissolved in RPMI 1640 medium were added 25 seconds after the addition of RPMI 1640 until each peptide had final concentrations of 1 μmol/L and of 5 μmol/L, and the relative luminescence levels were measured every second immediately after the addition of RPMI 1640 medium by using a luminometer (AutoLumat LB953, manufactured by Berthold).

[2] = test system: vascular cells of the apoaequorin-expressing mice; test: Intracellular calcium ion increase (aequorin luminescence), blood vessel of apoaequorin-expressing mice; type: cell-based, mouse; settings: for luminescence in the blood vessel: organ pieces, peptide final concentrations of 1 μmol/L and of 5 μmol/L
Procedure: as §1, §2, §3

[3] = test system: thymus; test: Aequorin luminescence, thymus of apoaequorin-expressing mice; type: cell-based, mouse; settings: organ pieces, peptide final concentrations of 1 μmol/L and of 5 μmol/L
Excerpt: as §2, §3

[4] = test system: spleen; test: Aequorin luminescence, spleen of apoaequorin-expressing mice; type: cell-based, mouse; settings: organ pieces, peptide final concentrations of 1 μmol/L and of 5 μmol/L
Excerpt: as §2, §3

[5] = test system: bone; test: Aequorin luminescence, bone of apoaequorin-expressing mice; type: cell-based, mouse; settings: organ pieces, peptide final concentrations of 1 μmol/L and of 5 μmol/L
Excerpt: (§4) Whether Peptides 1 to 5, 9 and 10 synthesized in Example 2 have the activity of increasing intracellular calcium ion concentration was investigated using the organs of transgenic mice introduced with the apoaequorin gene and systemically expressing apoaequorin (hereinafter referred to as apoaequorin-expressing mice). In apoaequorin-expressing mouse cells, light is emitted when apoaequorin binds to a calcium ion in the presence of the luminescent substrate coelenterazine and thus the intracellular calcium ion concentration can be monitored. Patent Document (WO02/010371) discloses the method for producing apoaequorin-expressing mice, method for evaluating biologically active substances that use biological samples derived from the mice, and experimental results of evaluating biologically active peptides using the mouse organs as shown below. […]
(§5) Apoaequorin-expressing mice were produced according to the method disclosed in Reference Example 4 of Patent Document (WO02/010371). […] After culturing, RPMI 1640 medium was added, and then Peptides 1 to 5, 9 and 10 dissolved in RPMI 1640 medium were added 25 seconds after the addition of RPMI 1640 until each peptide had final concentrations of 1 μmol/L and of 5 μmol/L, and the relative luminescence levels were measured every second immediately after the addition of RPMI 1640 medium by using a luminometer (AutoLumat LB953, manufactured by Berthold).

[6] = test system: uterus; test: Aequorin luminescence, uterus of apoaequorin-expressing mice; type: cell-based, mouse; settings: organ pieces, peptide final concentrations of 1 μmol/L and of 5 μmol/L
Excerpt: as §2, §3

[7] = Effect on rat blood pressure (anesthetized rats, bolus injection); type: in vivo; settings: 300 nmol in saline, bolus injection into external jugular vein, anesthetized male Wistar rats
Procedure: Catheters are inserted into the external jugular vein and internal carotid artery of an anesthetized animal such as rat or the like, and arterial pressure is measured continuously by connecting the catheter in the internal carotid artery to a blood pressure monitor. The peptide or pharmaceutically acceptable salt dissolved in physiological saline is administered through the external jugular vein.
Wistar rats (male, 10-weeks old, 250 to 300 g) were anesthetized by intraperitoneally administering Pentobarbital at 50 mg/kg body weight. Catheters were inserted into the external jugular vein and internal carotid artery of the anesthetized rats; the catheter in the internal carotid artery was connected to a blood pressure monitor; 300 nmol of Peptide 2 dissolved in saline (100 μL) was administered from the external jugular vein by bolus injection; and blood pressure was measured continuously.

[8] = test system: antiserum (rabbit, Peptide 7-KLH conjugate as antigen); test: Binding specificity of antiserum by competitive RIA with [125I]-labeled Peptide 1; settings: for inhibition of antiserum binding to [125I]-labeled Peptide 1: VGF-derived peptides, sequentially diluted
Procedure: As controls, reactions that use RIA buffer instead of the antiserum to measure non-specific binding, and reactions […] that use RIA buffer instead of VGF-derived peptide solutions to measure the maximum binding level were carried out. Reactions for non-specific binding were performed in quadruplicates, and the other reactions were performed in duplicates, and for each of the reactants, the immune complex was precipitated as in the above-mentioned antibody titer measurements, and its radioactivity (cpm) was measured. The average radioactivity of non-specific binding reaction is defined as non-specific binding level N, the radioactivity value for each VGF-derived peptide addition reaction is defined as Y, and the radioactivity value of maximum binding reaction is defined as Z. The percentage ratio (B/B0) of antiserum specific binding level (B) with peptide addition to the maximum binding level (B0), was determined using the following formula.
B/B0 (%)={(Y−N)/(Z−N)}×100
Accordingly, the amount of peptide that achieves 50% B/B0, more specifically, the amount of peptide that yields 50% inhibition of the maximum binding level, was used as an indicator of the peptide binding activity to the antiserum.
The amounts of peptide/tube used for performing the measurements were 0.5, 1, 2, 4, 8, 16, 32, 64, 128, 256, 512 and 1024 fmol for Peptide 1; 1, 2, 4, 8, 16, 32, 64, 128, 256, 512 and 1024 fmol for Peptide 2; 1, 3.3, 10, 33, 100, 333, 1000, 3300, 10,000, 33,000, 100,000, 333,000 and 1,000,000 fmol for Peptide 3; and 1,000, 10,000, 100,000 and 1,000,000 fmol for Peptide 8.

[9] = test system: kidney; test: Aequorin luminescence, kidney of apoaequorin-expressing mice; type: cell-based, mouse; settings: organ pieces, peptide final concentrations of 1 μmol/L and of 5 μmol/L
Excerpt: as §4, §5

[10] = test system: adrenal gland; test: Aequorin luminescence, adrenal gland of apoaequorin-expressing mice; type: cell-based, mouse; settings: organ pieces, peptide final concentrations of 1 μmol/L and of 5 μmol/L
Excerpt: as §4, §5

[11] = test system: pituitary gland; test: Aequorin luminescence, pituitary gland of apoaequorin-expressing mice; type: cell-based, mouse; settings: organ pieces, peptide final concentrations of 1 μmol/L and of 5 μmol/L
Excerpt: as §2, §3

Substance	intracellular calcium concentration in cardiac cells (RLU per second) [1]	luminescence in the heart [1]	intracellular calcium concentration in vascular cells (RLU per second) ([2]; 5 μmol/L of peptide, added at 25 seconds)	luminescence in the blood vessel [2]	luminescence in the thymus [3]	luminescence in the spleen [4]	luminescence in the bone [5]	luminescence in the uterus [6]	change in average arterial blood pressure [7]	inhibition of antiserum binding to [125I]-labeled Peptide 1 [8]	luminescence in the kidney [9]	luminescence in the adrenal gland [10]	luminescence in the pituitary gland [11]	antiserum binding relative to the Peptide 1 binding ([8]; fraction of the Peptide 1 binding)	amount required to show the same degree of inhibition as Peptides 1 and 2 ([8]; relative to Peptides 1 and 2)
Peptide 2: positions 554 to 577 of human VGF (SEQ ID NO: 3) with C-terminal amide (TLQPPSALRRRHYHHALPPSRHYP-NH2)	increase of intracellular calcium concentration	luminescence was observed	increase of intracellular calcium concentration	luminescence was observed	luminescence was observed	luminescence was observed	luminescence was observed	luminescence was observed	obvious increase in blood pressure; also recorded: increase of blood pressure	same degree of quantity-dependent inhibition	–	–	–	–	–
Peptide 3: positions 554 to 583 of the amino acid sequence of human VGF, termini unmodified (H-TLQPPSALRRRHYHHALPPSRHYPGREAQA-OH)	increase of intracellular calcium concentration	luminescence was observed	–	luminescence was observed	luminescence was observed	luminescence was observed	luminescence was observed	luminescence was observed	–	dose-dependent inhibition of antiserum binding but the inhibition was weak	luminescence was observed	luminescence was observed	luminescence was observed	1/10000	approximately 10,000 folds
